Test results as given in DBAASP.
Values after ≈ are worked out from the molar mass of the structure shown.

Key:
Experiment in all cases: ≥ marks a high value that may be exact or a test limit, other limits are often not marked, values filed in µg/mL are converted to µM
Bacillus subtilis DELTA = tested on: Bacillus subtilis DELTA
Candida parapsilosis = tested on: Candida parapsilosis
[1] = tested on: Escherichia coli DH5alpha
[2] = tested on: Pseudomonas aeruginosa PAO1
[3] = tested on: Zymomonas mobilis ATCC 10988
[4] = tested on: Candida albicans ATCC 10231
[5] = tested on: Candida glabrata ATCC 2001
Candida krusei ATCC 6258 = tested on: Candida krusei ATCC 6258
[6] = tested on: Candida parapsilosis ATCC 90018
[7] = tested on: Candida tropicalis ATCC 750
[8] = tested on: Escherichia coli ATCC 25922
[9] = tested on: Pseudomonas aeruginosa ATCC 27853
[10] = tested on: Staphylococcus aureus ATCC 29213
[11] = tested on: Bacillus subtilis ATCC 6633
[12] = tested on: Candida albicans ATCC 36232
[13] = tested on: Escherichia coli KCTC 2433
[14] = tested on: Klebsiella pneumoniae ATCC 10031
[15] = tested on: Micrococcus luteus ATCC 4698
[16] = tested on: Proteus mirabilis ATCC 25933
[17] = tested on: Pseudomonas aeruginosa ATCC 9027
[18] = tested on: Shigella dysenteriae ATCC 9752
[19] = tested on: Staphylococcus aureus ATCC 25923
[20] = tested on: Staphylococcus aureus KCTC 3881
[21] = tested on: Staphylococcus epidermidis ATCC 12228
Candida albicans 820 = tested on: Candida albicans 820
Escherichia coli ML-35 = tested on: Escherichia coli ML-35
[22] = tested on: Listeria monocytogenes EGD
Aspergillus fumigatus = tested on: Aspergillus fumigatus
Bibersteinia trehalosi = tested on: Bibersteinia trehalosi
[23] = tested on: Corynebacterium pseudotuberculosis ATCC 19410
Klebsiella pneumoniae = tested on: Klebsiella pneumoniae
[24] = tested on: Mannheimia haemolytica Serovar 1
[25] = tested on: Mannheimia haemolytica Serovar 2
[26] = tested on: Mannheimia haemolytica Serovar 6
Pasteurella multocida = tested on: Pasteurella multocida
[27] = tested on: Salmonella enterica subsp. arizonae
Staphylococcus aureus = tested on: Staphylococcus aureus
Candida albicans = tested on: Candida albicans
[28] = tested on: Enterococcus faecalis ATCC 29212
Escherichia coli UB1005 = tested on: Escherichia coli UB1005
[29] = tested on: Pseudomonas aeruginosa 253
[30] = tested on: Pseudomonas aeruginosa 910
[31] = tested on: Pseudomonas aeruginosa 919
[32] = tested on: Pseudomonas aeruginosa H103
[33] = tested on: Salmonella enterica serovar Typhimurium
[34] = tested on: Staphylococcus epidermidis

Which MIC (Bacillus subtilis DELTA) does the source give for `CC[C@H](C)[C@H](NC(=O)[C@H](CCCN=C(N)N)NC(=O)[C@H](CCCCN)NC(=O)[C@H](Cc1ccccc1)NC(C)=O)C(=O)N[C@H](C(=O)N[C@@H](CCC(N)=O)C(=O)N[C@H](C(=O)N[C@H](C(=O)N[C@@H](CCCCN)C(=O)N[C@@H](CCCCN)C(=O)N[C@@H](Cc1ccccc1)C(=O)N[C@@H](CC(C)C)C(=O)N[C@@H](CCCN=C(N)N)C(N)=O)[C@@H](C)CC)[C@@H](C)CC)C(C)C` [FKRIVQIIKKFLR] here?
The MIC was 11.8 µM (≈ 20.5 µg/mL).

And the MIC (Candida parapsilosis)?
Its MIC is 17.8 µM (≈ 30.7 µg/mL).

And the MIC [1]?
Its MIC is 29.6 µM (≈ 51.2 µg/mL).

What about the MIC [2] of the same compound?
The MIC was 1.78 µM (≈ 3.07 µg/mL).

What about the MIC [3] of the same compound?
The MIC was 2.96 µM (≈ 5.12 µg/mL).

Which results are given for `CC[C@H](C)[C@H](NC(=O)CN)C(=O)N[C@@H](CC(C)C)C(=O)N[C@@H](CC(=O)O)C(=O)N[C@H](C(=O)N[C@@H](CC(C)C)C(=O)N[C@@H](CC(N)=O)C(=O)N[C@@H](CCCCN)C(=O)N[C@H](C(=O)N[C@@H](CO)C(=O)N[C@@H](CC(N)=O)C(=O)N[C@@H](CC(C)C)C(=O)N[C@@H](Cc1ccccc1)C(N)=O)C(C)C)[C@@H](C)CC` [GILDILNKVSNLF]?
MIC [4]: 31.2 µM (≈ 45.1 µg/mL); MIC [5]: ≥ 125 µM; MIC (Candida krusei ATCC 6258): ≥ 62.5 µM; MIC [6]: ≥ 125 µM; MIC [7]: 31.2 µM (≈ 45.1 µg/mL); MIC [8]: 62.5 µM (≈ 90.3 µg/mL); MIC [9]: 31.2 µM (≈ 45.1 µg/mL); MIC [10]: 8 µM (≈ 11.6 µg/mL)

Which results are given for `CC[C@H](C)[C@@H]1NC(=O)[C@H](CCCCN)NC(=O)[C@@H](NC(=O)[C@H](CCCCN)NC(=O)[C@H](CC(C)C)NC(=O)[C@H](CCC(N)=O)NC(=O)[C@H](CCC(=O)O)NC(=O)[C@H](CC(C)C)NC(=O)[C@H](CC(C)C)NC(=O)[C@H](CO)NC(=O)CNC(=O)CNC(=O)[C@@H](NC(=O)[C@H](CC(N)=O)NC(=O)[C@H](CCCCN)NC(=O)[C@H](C)NC(=O)[C@@H](NC(=O)[C@H](CC(N)=O)NC(=O)[C@H](CCCCN)NC(=O)CNC(=O)[C@@H](NC(=O)[C@H](C)NC(=O)[C@H](CCCCN)NC(=O)[C@H](CC(C)C)NC(=O)[C@@H](NC(=O)CNC(=O)[C@@H](NC(=O)[C@@H](NC(=O)[C@@H](NC(=O)[C@H](CO)NC(=O)[C@H](Cc2ccccc2)NC(=O)[C@H](CC(C)C)NC(=O)CN)C(C)C)C(C)C)[C@@H](C)O)C(C)C)C(C)C)C(C)C)C(C)C)CSSC[C@@H](C(=O)O)NC(=O)CNC(=O)CNC(=O)[C@H](CO)NC1=O` [GLFSVVTGVLKAVGKNVAKNVGGSLLEQLKCKISGGC]?
MIC [11]: 13.6 µM (≈ 50 µg/mL); MIC [12]: 13.6 µM (≈ 50 µg/mL); MIC [8]: 15 µM (≈ 55.1 µg/mL); MIC [13]: 16.3 µM (≈ 60 µg/mL); MIC [14]: 13.6 µM (≈ 50 µg/mL); MIC [15]: 1.7 µM (≈ 6.25 µg/mL); MIC [16]: 27.2 µM (≈ 99.9 µg/mL); MIC [17]: > 27.2 µM; MIC [18]: 13.6 µM (≈ 50 µg/mL); MIC [19]: 30 µM (≈ 110 µg/mL); MIC [20]: 6.8 µM (≈ 25 µg/mL); MIC [21]: 13.6 µM (≈ 50 µg/mL)

With `CC[C@H](C)[C@@H]1NC(=O)[C@@H]2CSSC[C@H](NC(=O)[C@H](Cc3ccc(O)cc3)NC(=O)[C@@H](NC(=O)[C@H](CC(C)C)NC(=O)[C@H](CCCNC(=N)N)NC(=O)CNC(=O)CNC(=O)[C@@H](N)CCCNC(=N)N)CSSC[C@@H](C(=O)N[C@H](C(N)=O)C(C)C)NC1=O)C(=O)N[C@@H](CCCNC(=N)N)C(=O)N[C@@H](CCCNC(=N)N)C(=O)N[C@@H](CCCNC(=N)N)C(=O)N[C@@H](Cc1ccccc1)C(=O)N2` [RGGRLCYCRRRFCICV] as the compound, how does the MIC (Candida albicans 820) read?
The MIC was 12.7 µM (≈ 24.9 µg/mL).

And the MIC (Escherichia coli ML-35)?
Its MIC is 12.7 µM (≈ 24.9 µg/mL).

What about the MIC [22] of the same compound?
The MIC was 12.7 µM (≈ 24.9 µg/mL).

What does the source list for `CC[C@H](C)[C@H](NC(=O)[C@H](CCCCN)NC(=O)[C@H](CCCN=C(N)N)NC(=O)CNC(=O)[C@H](CC(C)C)NC(=O)[C@H](C)NC(=O)[C@H](CCCN=C(N)N)NC(=O)[C@H](CC(C)C)NC(=O)CNC(=O)[C@@H](N)CCCN=C(N)N)C(=O)N[C@@H](C)C(=O)N[C@@H](Cc1cnc[nH]1)C(=O)NCC(=O)N[C@H](C(=O)N[C@@H](CCCCN)C(=O)N[C@@H](C)C(=O)N[C@@H](Cc1ccc(O)cc1)C(=O)NCC(=O)O)C(C)C` [RGLRALGRKIAHGVKAYG]?
MIC (Aspergillus fumigatus): 20.8 µM (≈ 40 µg/mL); MIC (Bibersteinia trehalosi): 10.4 µM (≈ 20 µg/mL); MIC [23]: 10.4 µM (≈ 20 µg/mL); MIC (Klebsiella pneumoniae): > 10.4 µM; MIC [24]: 5.2 µM (≈ 10 µg/mL); MIC [25]: 4.32 µM (≈ 8.3 µg/mL); MIC [26]: 10.4 µM (≈ 20 µg/mL); MIC (Pasteurella multocida): 10.4 µM (≈ 20 µg/mL); MIC [2]: 5.2 µM (≈ 10 µg/mL); MIC [27]: 10.4 µM (≈ 20 µg/mL); MIC (Staphylococcus aureus): > 10.4 µM

What does the source list for `CC[C@H](C)[C@H](NC(=O)[C@H](CCCN=C(N)N)NC(=O)[C@H](C)NC(=O)[C@H](CC(C)C)NC(=O)[C@@H](N)CCCN=C(N)N)C(=O)N[C@H](C(=O)N[C@H](C(=O)N[C@H](C(=O)N[C@@H](CCCN=C(N)N)C(=O)N[C@H](C(=O)N[C@@H](CCCN=C(N)N)C(=O)N[C@@H](CCCN=C(N)N)C(N)=O)C(C)C)[C@@H](C)CC)C(C)C)C(C)C` [RLARIVVIRVRR]?
MIC (Candida albicans): 5.31 µM (≈ 8 µg/mL); MIC [28]: 5.31 µM (≈ 8 µg/mL); MIC (Escherichia coli UB1005): 5.31 µM (≈ 8 µg/mL); MIC [29]: ≥ 64 µM; MIC [30]: ≥ 64 µM; MIC [31]: ≥ 32 µM; MIC [32]: 10.6 µM (≈ 16 µg/mL); MIC [2]: 16 µM (≈ 24.1 µg/mL); MIC [33]: 5.31 µM (≈ 8 µg/mL); MIC [19]: 5.31 µM (≈ 8 µg/mL); MIC [34]: 1.33 µM (≈ 2 µg/mL)
